# Tests used:
# Test in all cases: Test F pre-/postemergence plant response
# Type in all cases: in vivo
# Conditions in all cases: scale 0 to 100
# [1] = tested on: velvetleaf (Abutilon theophrasti)
# Summary of the method: (§1)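 Values are visual ratings, where 100 is complete control and 0 is no effect, given after 14 to 21 days of greenhouse growth. Test chemicals in a non-phytotoxic, surfactant-containing solvent were sprayed on soil just after planting or on emerged seedlings at the 1- to 4-leaf stage.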
# [2] = tested on: nightshade (eastern black nightshade, Solanum ptycanthum)
# Summary of the method: as §1
# [3] = tested on: hairy beggarticks (Bidens pilosa)
# Summary of the method: as §1
# [4] = tested on: field bindweed (Convolvulus arvensis)
# Summary of the method: as §1
# kochia (Kochia scoparia) = tested on: kochia (Kochia scoparia)
# Summary of the method: as §1
# corn (Zea mays) = tested on: corn (Zea mays)
# Summary of the method: as §1
# [5] = tested on: wild poinsettia (Euphorbia heterophylla)
# Summary of the method: as §1
# [6] = tested on: Italian ryegrass (Lolium multiflorum)
# Summary of the method: as §1
# [7] = tested on: Brazilian crabgrass (Digitaria horizontalis)
# Summary of the method: as §1
# [8] = tested on: yellow nutsedge (Cyperus esculentus)
# Summary of the method: as §1
# [9] = tested on: fall panicum (Panicum dichotomiflorum)
# Summary of the method: as §1
# [10] = tested on: large (Lg) crabgrass (Digitaria sanguinalis)
# Summary of the method: as §1
# [11] = tested on: goosegrass (Eleusine indica)
# Summary of the method: as §1
# [12] = tested on: ragweed (common ragweed, Ambrosia elatior)
# Summary of the method: as §1
# [13] = tested on: surinam grass (Brachiaria decumbens)
# Summary of the method: as §1
# soybean (Glycine max) = tested on: soybean (Glycine max)
# Summary of the method: as §1
compound,measurement,setting,value
FC(F)c1cc(-c2c(Cl)cccc2Oc2ncc(Cl)cn2)no1 [Compound 179],"Plant response rating, Velvetleaf",[1]; 16 g ai/ha Preemergence,15
same,"Plant response rating, Velvetleaf",[1]; 31 g ai/ha Preemergence,65
same,"Plant response rating, Velvetleaf",[1]; 125 g ai/ha Preemergence,100
same,"Plant response rating, Velvetleaf",[1]; Preemergence,90
same,"Plant response rating, Nightshade",[2]; 31 g ai/ha Preemergence,65
same,"Plant response rating, Nightshade",[2]; 125 g ai/ha Preemergence,100
same,"Plant response rating, Nightshade",[2]; Preemergence,100
same,"Plant response rating, Beggarticks",[3]; 16 g ai/ha Postemergence,20
same,"Plant response rating, Beggarticks",[3]; 16 g ai/ha Preemergence,0
same,"Plant response rating, Beggarticks",[3]; 31 g ai/ha Postemergence,50
same,"Plant response rating, Beggarticks",[3]; 31 g ai/ha Preemergence,0
same,"Plant response rating, Beggarticks",[3]; 62 g ai/ha Postemergence,40
same,"Plant response rating, Beggarticks",[3]; 62 g ai/ha Preemergence,0
same,"Plant response rating, Beggarticks",[3]; 125 g ai/ha Postemergence,50
same,"Plant response rating, Beggarticks",[3]; 125 g ai/ha Preemergence,0
same,"Plant response rating, Field Bindweed",[4]; 16 g ai/ha Postemergence,15
same,"Plant response rating, Field Bindweed",[4]; 16 g ai/ha Preemergence,0
same,"Plant response rating, Field Bindweed",[4]; 31 g ai/ha Postemergence,25
same,"Plant response rating, Field Bindweed",[4]; 31 g ai/ha Preemergence,0
same,"Plant response rating, Field Bindweed",[4]; 62 g ai/ha Postemergence,35
same,"Plant response rating, Field Bindweed",[4]; 62 g ai/ha Preemergence,0
same,"Plant response rating, Field Bindweed",[4]; 125 g ai/ha Postemergence,50
same,"Plant response rating, Field Bindweed",[4]; 125 g ai/ha Preemergence,0
same,"Plant response rating, Kochia",kochia (Kochia scoparia); 16 g ai/ha Postemergence,65
same,"Plant response rating, Kochia",kochia (Kochia scoparia); 16 g ai/ha Preemergence,0
same,"Plant response rating, Kochia",kochia (Kochia scoparia); 31 g ai/ha Postemergence,75
same,"Plant response rating, Kochia",kochia (Kochia scoparia); 31 g ai/ha Preemergence,0
same,"Plant response rating, Kochia",kochia (Kochia scoparia); 62 g ai/ha Postemergence,90
same,"Plant response rating, Kochia",kochia (Kochia scoparia); 125 g ai/ha Postemergence,95
same,"Plant response rating, Kochia",kochia (Kochia scoparia); 125 g ai/ha Preemergence,98
same,"Plant response rating, Kochia",kochia (Kochia scoparia); Preemergence,70
same,"Plant response rating, Corn",corn (Zea mays); 16 g ai/ha Postemergence,5
same,"Plant response rating, Corn",corn (Zea mays); 16 g ai/ha Preemergence,0
same,"Plant response rating, Corn",corn (Zea mays); 31 g ai/ha Postemergence,0
same,"Plant response rating, Corn",corn (Zea mays); 31 g ai/ha Preemergence,0
same,"Plant response rating, Corn",corn (Zea mays); 62 g ai/ha Postemergence,10
same,"Plant response rating, Corn",corn (Zea mays); 62 g ai/ha Preemergence,0
same,"Plant response rating, Corn",corn (Zea mays); 125 g ai/ha Postemergence,15
same,"Plant response rating, Corn",corn (Zea mays); 125 g ai/ha Preemergence,40
same,"Plant response rating, Poinsettia, Wild",[5]; 16 g ai/ha Postemergence,15
same,"Plant response rating, Poinsettia, Wild",[5]; 16 g ai/ha Preemergence,0
same,"Plant response rating, Poinsettia, Wild",[5]; 31 g ai/ha Postemergence,15
same,"Plant response rating, Poinsettia, Wild",[5]; 31 g ai/ha Preemergence,0
same,"Plant response rating, Poinsettia, Wild",[5]; 62 g ai/ha Postemergence,20
same,"Plant response rating, Poinsettia, Wild",[5]; 125 g ai/ha Postemergence,35
same,"Plant response rating, Poinsettia, Wild",[5]; 125 g ai/ha Preemergence,0
same,"Plant response rating, Poinsettia, Wild",[5]; Preemergence,0
same,"Plant response rating, Ryegrass, Italian",[6]; 16 g ai/ha Postemergence,0
same,"Plant response rating, Ryegrass, Italian",[6]; 16 g ai/ha Preemergence,0
same,"Plant response rating, Ryegrass, Italian",[6]; 31 g ai/ha Postemergence,0
same,"Plant response rating, Ryegrass, Italian",[6]; 31 g ai/ha Preemergence,0
same,"Plant response rating, Ryegrass, Italian",[6]; 62 g ai/ha Postemergence,0
same,"Plant response rating, Ryegrass, Italian",[6]; 125 g ai/ha Postemergence,0
same,"Plant response rating, Ryegrass, Italian",[6]; 125 g ai/ha Preemergence,10
same,"Plant response rating, Ryegrass, Italian",[6]; Preemergence,0
same,"Plant response rating, Crabgrass, Brazil",[7]; 16 g ai/ha Postemergence,10
same,"Plant response rating, Crabgrass, Brazil",[7]; 16 g ai/ha Preemergence,0
same,"Plant response rating, Crabgrass, Brazil",[7]; 31 g ai/ha Postemergence,20
same,"Plant response rating, Crabgrass, Brazil",[7]; 31 g ai/ha Preemergence,0
same,"Plant response rating, Crabgrass, Brazil",[7]; 62 g ai/ha Postemergence,20
same,"Plant response rating, Crabgrass, Brazil",[7]; 62 g ai/ha Preemergence,15
same,"Plant response rating, Crabgrass, Brazil",[7]; 125 g ai/ha Postemergence,30
same,"Plant response rating, Crabgrass, Brazil",[7]; 125 g ai/ha Preemergence,25
same,"Plant response rating, Nutsedge, Yellow",[8]; 16 g ai/ha Preemergence,0
same,"Plant response rating, Nutsedge, Yellow",[8]; 31 g ai/ha Preemergence,0
same,"Plant response rating, Nutsedge, Yellow",[8]; 125 g ai/ha Preemergence,0
same,"Plant response rating, Nutsedge, Yellow",[8]; Preemergence,0
same,"Plant response rating, Panicum, Fall",[9]; 16 g ai/ha Postemergence,15
same,"Plant response rating, Panicum, Fall",[9]; 16 g ai/ha Preemergence,0
same,"Plant response rating, Panicum, Fall",[9]; 31 g ai/ha Postemergence,10
same,"Plant response rating, Panicum, Fall",[9]; 31 g ai/ha Preemergence,0
same,"Plant response rating, Panicum, Fall",[9]; 62 g ai/ha Postemergence,15
same,"Plant response rating, Panicum, Fall",[9]; 125 g ai/ha Postemergence,10
same,"Plant response rating, Panicum, Fall",[9]; 125 g ai/ha Preemergence,75
same,"Plant response rating, Panicum, Fall",[9]; Preemergence,50
same,"Plant response rating, Crabgrass, Large",[10]; 16 g ai/ha Preemergence,0
same,"Plant response rating, Crabgrass, Large",[10]; 31 g ai/ha Preemergence,0
same,"Plant response rating, Crabgrass, Large",[10]; 62 g ai/ha Preemergence,35
same,"Plant response rating, Crabgrass, Large",[10]; 125 g ai/ha Preemergence,60
same,"Plant response rating, Goosegrass",[11]; 16 g ai/ha Preemergence,0
same,"Plant response rating, Goosegrass",[11]; 31 g ai/ha Preemergence,0
same,"Plant response rating, Goosegrass",[11]; 125 g ai/ha Preemergence,0
same,"Plant response rating, Goosegrass",[11]; Preemergence,0
same,"Plant response rating, Ragweed",[12]; 16 g ai/ha Postemergence,45
same,"Plant response rating, Ragweed",[12]; 16 g ai/ha Preemergence,0
same,"Plant response rating, Ragweed",[12]; 31 g ai/ha Postemergence,40
same,"Plant response rating, Ragweed",[12]; 31 g ai/ha Preemergence,0
same,"Plant response rating, Ragweed",[12]; 62 g ai/ha Postemergence,40
same,"Plant response rating, Ragweed",[12]; 125 g ai/ha Postemergence,50
same,"Plant response rating, Ragweed",[12]; 125 g ai/ha Preemergence,0
same,"Plant response rating, Ragweed",[12]; Preemergence,0
same,"Plant response rating, Surinam Grass",[13]; 16 g ai/ha Preemergence,0
same,"Plant response rating, Surinam Grass",[13]; 31 g ai/ha Preemergence,0
same,"Plant response rating, Surinam Grass",[13]; 125 g ai/ha Preemergence,0
same,"Plant response rating, Surinam Grass",[13]; Preemergence,0
same,"Plant response rating, Soybean",soybean (Glycine max); 16 g ai/ha Postemergence,60
same,"Plant response rating, Soybean",soybean (Glycine max); 16 g ai/ha Preemergence,0
same,"Plant response rating, Soybean",soybean (Glycine max); 31 g ai/ha Postemergence,50
same,"Plant response rating, Soybean",soybean (Glycine max); 31 g ai/ha Preemergence,0
same,"Plant response rating, Soybean",soybean (Glycine max); 62 g ai/ha Postemergence,75
same,"Plant response rating, Soybean",soybean (Glycine max); 125 g ai/ha Postemergence,90
same,"Plant response rating, Soybean",soybean (Glycine max); 125 g ai/ha Preemergence,35
same,"Plant response rating, Soybean",soybean (Glycine max); Preemergence,0

# — patent US10131652B2, “Pyrimidinyloxy benzene derivatives as herbicides” (E. I. DU PONT DE NEMOURS AND COMPANY, priority 2014, dated 2018)
